The source of these data is patent publication US20100063035A1, “CARBONIC ANHYDRASE INHIBITORS DERIVATIVES” (Nicox S.A., priority 2006, published 2010).

In one assay the target is hCA II (Homo sapiens, UniProt P00918). The experiment in a line: Carbonic anhydrase inhibition, stopped-flow CO2 hydration assay, isoenzyme CA II.
Another assay deals with hCA IV (Homo sapiens, UniProt P22748). The experiment in a line: Carbonic anhydrase inhibition, stopped-flow CO2 hydration assay, isoenzyme CA IV.
For a further assay, the target named is hCA I (Homo sapiens, UniProt P00915). Put plainly: Carbonic anhydrase inhibition, stopped-flow CO2 hydration assay, isoenzyme CA I.
Sequence of hCA I (P00915 whole entry): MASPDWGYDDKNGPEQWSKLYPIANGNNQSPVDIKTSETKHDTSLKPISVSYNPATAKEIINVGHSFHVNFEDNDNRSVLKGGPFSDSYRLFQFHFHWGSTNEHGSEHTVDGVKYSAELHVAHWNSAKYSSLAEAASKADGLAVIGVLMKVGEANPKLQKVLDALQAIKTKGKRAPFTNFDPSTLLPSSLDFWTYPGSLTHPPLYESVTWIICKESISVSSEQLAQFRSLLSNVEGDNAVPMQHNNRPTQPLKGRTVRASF

Sequence of hCA IV (P22748 19-284 limits assumed): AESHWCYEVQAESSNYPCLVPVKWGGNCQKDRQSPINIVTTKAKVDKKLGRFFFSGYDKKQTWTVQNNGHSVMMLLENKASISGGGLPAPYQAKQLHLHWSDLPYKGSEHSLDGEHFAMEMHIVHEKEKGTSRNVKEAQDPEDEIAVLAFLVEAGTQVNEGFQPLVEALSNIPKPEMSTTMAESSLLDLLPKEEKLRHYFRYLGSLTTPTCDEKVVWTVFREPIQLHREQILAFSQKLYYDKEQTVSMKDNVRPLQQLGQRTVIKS
Protocol for hCA II: (§1) An SX.18MV-R Applied Photophysics stopped flow instrument was used for assaying the CA CO2 hydration activity. […] The buffer solution was constituted by 10 mM HEPES, 0.1 M Na2SO4, and TRIZMA hydrochloride 0.01 M, adjusting the pH solution at 7.5 with NaOH (0.1 M). […] Satured CO2 solution in bidistilled water at 20° C. was used as substrate.
(§2) Stock solutions of inhibitor (1 mM) were prepared with buffer solution with 10-20% (v/v) DMSO, and dilutions up to 0.1 nM. To allow for the formation of the E-1 complex, inhibitor and enzyme solutions were preincubated during 15 min at room temperature prior to assay. Enzyme concentration was 0.1 μM for CA I and II, 10 μM for CA IV. The human CA I and CA II are commercially available, whereas hCA IV (tumor) is cloned isoform.
Each experiment was done in triplicate.
Protocol for hCA IV: as §1, §2
Each experiment was done in triplicate.

A word on the Ki: it is the dissociation constant of the complex between target and ligand, obtained from inhibition or displacement. Higher therefore signals a looser hold on the target. Regarding `CCN[C@H]1CC(C)S(=O)(=O)c2sc(S(=O)(=O)NC(=O)CCCCCO[N+](=O)[O-])cc21` (stereo partly drawn) [Ex. 1, (4S-trans)-4-(ethylamino)-5,6-dihydro-6-methyl-4H-thieno[2,3-b]thiopyran-2-sulfonylamido-N((6-nitrooxy)hexanoyl)-7,7-dioxide], the Ki at hCA II turned out to be 0.251 µM; at hCA IV, 3.4 µM; on hCA I it was 15 µM.
For `CCN[C@H]1CC(C)S(=O)(=O)c2sc(S(=O)(=O)NC(=O)OCCCCO[N+](=O)[O-])cc21` (stereo partly drawn) [Ex. 7, (4S-trans)-4-(ethylamino)-5,6-dihydro-6-methyl-4H-thieno[2,3-b]thiopyran-2-sulfonylamido-N-(4-(nitrooxy)butyloxycarbonyl)-7,7-dioxide] the same measures were 0.886 µM, 0.411 µM and 42.3 µM.
